Experimental findings from EP4772509A1, “KINESIN KIF18A INHIBITOR, AND APPLICATION THEREOF” (Shanghai Apeiron Therapeutics Company Limited, priority 2023, dated 2025) are described below.

The subject of one assay is OVCAR3 cells. As to the kind of experiment: Cell proliferation activity test (CyQUANT Direct). The following applies: 3 days, 0.2% DMSO, CyQUANT fluorescence. It counts as cell-based. How it is done: Materials and Cells: OVCAR3 cells were purchased from Nanjing Cobioer Biosciences Co., Ltd. RPMI-1640 medium, fetal bovine serum, and the CyQUANT Direct Cell Proliferation Assay kit were purchased from Thermo Fisher Scientific, USA; 96-well cell culture plates were sourced from Corning, USA.
Cell Culture: OVCAR3 cells were cultured with RPMI-1640 medium containing 10% fetal bovine serum and incubated in a 5% CO2 incubator at 37°C. Only cells in the logarithmic growth phase could be used for the test.
OVCAR3 cells were inoculated into a 96-well cell culture plate at 90 µL per well and incubated overnight in a 5% CO2 incubator at 37°C. The compound powder was dissolved in DMSO to prepare a stock solution of 10 mM. Then gradient dilution was performed for the compounds in the microplate to achieve a final concentration of 0-10 µM. 10 µL of cell culture medium containing compounds was added to each well to make the final DMSO content 0.2%. The cell plates were incubated in a 5% CO2 incubator at 37°C for 3 days. 100 µL of CyQUANT detection reagent was added to each well, reacted at 37°C for 60 min, and fluorescence detection was performed using the PerkinElmer Envision.

The next assay deals with HT29 cells. As to the kind of experiment: CyQuant cell proliferation activity test. In kind it is cell-based. The following applies: HT29 at 2000 cells per well, 3 days, 0.2% DMSO, XLFIT. The protocol: Materials and Cells: HT29 cells were purchased from Nanjing Cobioer Biosciences Co., Ltd.; RPMI-1640 medium, fetal bovine serum, Trypsin-EDTA (0.25%), 96-well plates, and CyQuant reagents were purchased from ThermoFisher (USA); DMSO was purchased from SIGMA (USA).
Cell Culture: HT29 cells were cultured with RPMI-1640 containing 10% fetal bovine serum under the condition of 37°C and 5% CO2. Only cells in the logarithmic growth phase could be used for the test.
Cell Proliferation Activity Test: CyQuant reagent was used to detect the proliferation inhibitory activity of compounds on HT29 cells. The cell density was adjusted, and 100 µL per well was inoculated into a 96-well plate (HT29 at 2000 cells per well), then incubated overnight at 37°C and 5% CO2. Add compounds of various target concentrations (initial concentration of 3000 nM, 3-fold dilution, 9 concentration gradients), and make the DMSO content 0.2%. The cell plate was incubated at 37°C in 5% CO2 for 3 days. CyQuant reagent was added and incubated for 1 h. The plates were read by Envision, and IC50 was calculated using XLFIT.

Assay [1] addresses T1, Human KIF18A (amino acid sequence 1-417) (Homo sapiens, UniProt Q8NI77).
T1 construct: purchased Viva Biotech (Shanghai) Ltd
T1 sequence (Q8NI77 1-417): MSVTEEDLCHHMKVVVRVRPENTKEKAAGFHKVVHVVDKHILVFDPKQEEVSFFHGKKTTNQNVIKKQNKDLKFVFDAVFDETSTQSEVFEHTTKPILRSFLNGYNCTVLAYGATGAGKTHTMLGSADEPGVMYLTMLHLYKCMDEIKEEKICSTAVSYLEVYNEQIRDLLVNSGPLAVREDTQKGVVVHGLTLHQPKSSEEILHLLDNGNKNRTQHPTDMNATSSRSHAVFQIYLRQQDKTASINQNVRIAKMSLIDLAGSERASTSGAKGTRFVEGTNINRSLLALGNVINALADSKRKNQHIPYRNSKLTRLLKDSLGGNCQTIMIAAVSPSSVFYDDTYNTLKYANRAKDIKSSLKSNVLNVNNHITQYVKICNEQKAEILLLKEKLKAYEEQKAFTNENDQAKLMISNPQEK
As to the kind of experiment: Enzymatic activity test (ADP-Glo, microtubule-stimulated ATPase). In kind it is biochemical. The following applies: 60 µg/mL microtubules, 25 µM ATP, 2.5 nM KIF18A protein, 120 min at ambient temperature, chemiluminescence. How it is done: Materials: Human KIF18A (amino acid sequence 1-417) was purchased from Viva Biotech (Shanghai) Ltd.; the ADP-Glo™ protein kinase kit was acquired from Promega, USA; tubulin was sourced from Cytoskeleton, USA; and the 384-well assay plate and Envision multifunctional microplate reader were obtained from PerkinElmer, USA.
Enzymatic Activity Test: The compound powder was dissolved in DMSO to prepare a stock solution of 10 mM. Then gradient dilution was performed for the compounds in the microplate to achieve a final concentration of 0-10 µM. Then, 2.5 µL each of tubulin, compound, ATP, and KIF18A protein were added to the microplate in sequence for reaction at ambient temperature for 120 min. The final concentrations in the enzyme reaction were 60 µg/mL for microtubules, 25 µM for ATP, and 2.5 nM for KIF18A protein. After the enzyme reaction, 10 µL of ADP-GLO reaction reagent was added to each well and incubated at room temperature for 30 min. After that, 20 µL of detection reagent was added to each well and incubated at room temperature for 30 min in the dark. Finally, chemiluminescence detection was performed using the PerkinElmer Envision.
(In general: ADP-Glo first removes unused ATP, then detects ADP through luciferase.)

Like-named read-outs stand apart in the source and are kept apart here. Where only a bound is given, the exact number is not on record here.

In the case of “N-((3^4Z,7E)-1^4,1^4-difluoro-2^6-methyl-3^1H-2(2,4)-pyrimidin-1(1,3),5(1,4)-dipiperidin-3(4,1)-triazole-4(1,2)-benzocyclooct-7 -en-4^4-yl)-2-hydroxyethane-1-sulfonamide [Example 81C]”, the IC50 (in general, the point on the concentration scale where inhibition reaches its midpoint) with OVCAR3 cells worked out at 0.5 µM; in the assay with HT29 cells (read-out: HT-29 IC50) it was 0.671 µM; in assay [1] (read-out: KIF18A IC50) it was 521 nM.
For `Cc1cc2nc(n1)N1CCC(F)(F)C(CCCc3ccc(nc3)-c3cc(NS(=O)(=O)CCO)ccc3C(=O)N2)C1` (stereo not drawn) [Example 49, N-(1^4,1^4-difluoro-2^6-methyl-4-oxo-3-aza-2(2,4)-pyrimidin-6(2,5)-pyridin-1(1,3)-piperidin-5(1,2)-phenylheterocyclononane-5^4-yl)-2-hydroxyethane-1-sulfonamide], the IC50 amounted to 1.08 µM in the assay with OVCAR3 cells (Homo sapiens, OVCAR-3, 72 h); 1.31 µM in the assay with HT29 cells (Homo sapiens, HT-29, 72 h); 187 nM in assay [1] (read-out: KIF18A IC50).
Turning to `Cc1cc2nc(n1)N1CCC(F)(F)C(/C=C/CC3CCN(CC3)c3cc(NS(=O)(=O)CCO)c4ccccc4c3C(=O)N2)C1` (single isomer, unassigned) [Example 1C, (trans)-N-(1^4,1^4-difluoro-2^6-methyl-4-oxo-3-aza-2(2,4)-pyrimidin-1(1,3),6(1,4)-dipiperidin-5(1,2)-naphthacyclonon-8-en-5 ^4-yl)-2-hydroxyethane-1-sulfonamide], the 50% inhibitory concentration (IC50) was 1.02 µM in the assay on OVCAR3 cells, 1.02 µM in the assay with HT29 cells (read-out: HT-29 IC50) and 1060 nM in assay [1] (read-out: KIF18A IC50).
With `Cn1c2nc(cc1=O)NC(=O)c1c(cc(NS(=O)(=O)CCO)c3c1CCC3=O)N1CCC(C/C=C\C3CN2CCC3(F)F)CC1` (stereo not drawn) [Example 9, N-(11,11-difluoro-6-methyl-1,5,22-trioxo-1,5,6,9,10,11,12,15,16,17,18,22,23,24-tetradecahydro-2H-3,7-(azanediyl)-16, 19-ethano-8,12-methyleneindeno[4,5-i] [1,3,7,11]tetraazacyclohenicosan-21-yl)-2-hydroxyethane-1-sulfonamide], the IC50 with OVCAR3 cells (Homo sapiens, OVCAR-3, 72 h) was 1.06 µM; in the assay with HT29 cells (Homo sapiens, HT-29, 72 h) it was 1.02 µM; in assay [1] (read-out: KIF18A IC50) it was 264 nM.
Taken in the same sequence, the figures for `COc1cc2nc(n1)N1CCC(F)(F)C(CCCc3ccc(cc3)-c3cc(NS(=O)(=O)CCO)ncc3C(=O)N2)C1` (single isomer, unassigned) [Example 56A, N-(1^4,1^4-difluoro-2^6-methoxy-4-oxo-3-aza-2(2,4)-pyrimidin-5(3,4)-pyridin-1(1,3)-piperidin-6(1,4)-benzoazacyclononane-5^6-yl)-2-hydroxyethane-1-sulfonamide] were 0.188 µM, 0.378 µM and 41 nM.
On the same counts, the results for `CON(C)C(=O)c1cc2c(cc1NS(=O)(=O)CCO)N1CCC(C/C=C/C3CN(CCC3(F)F)c3nc(C)cc(n3)-c3cn-2nn3)CC1` (stereo not drawn) [Example 90, (3^4Z,7E)-1^4,1^4-difluoro-4^4-((2-hydroxyethyl)sulfonamido)-N-methoxy-N,2^6-dimethyl-3^1H-2(2,4)-pyrimidin-1(1,3),5(1,4) -dipiperidin-3(4,1)-triazole-4(1,2)-benzocyclooct-7-en-45-carboxamide] are 0.136 µM, 0.333 µM and 274 nM.
As to “N-((3^4Z, 7Z)-1^4,1^4-difluoro-2^6-methyl-3^1H-2(2,4)-pyrimidin-1(1,3),5(1,4)-dipiperidin-3(4,1)-triazole-4(1,2)-benzocyclooct-7-en-4^4-y 1)-2-hydroxyethane-1-sulfonamide [Example 81B]”, the IC50 is 0.178 µM in the assay with OVCAR3 cells, 0.254 µM in the assay with HT29 cells (read-out: HT-29 IC50) and 491 nM in assay [1] (read-out: KIF18A IC50).
Regarding `Cc1cc2nc(n1)N1CCC(F)(F)C(/C=C/CC3CCN(CC3)c3cc(NS(=O)(=O)CCO)c(C(=O)N(C)C)cc3-n3cc-2nn3)C1` (stereo not drawn) [Example 93, (3^4Z,7E)-1^4,1^4-difluoro-4^4-((2-hydroxyethyl)sulfonamido)-2^6-methyl-3^1H-2(2,4)-pyrimidin-1(1,3),5(1,4)-dipiperidin-3(4,1)-triazole-4(1,2)-benzocyclooct-7-en-4^5carboxamide], the IC50 with OVCAR3 cells (Homo sapiens, OVCAR-3, 72 h) turned out to be 0.091 µM; with HT29 cells (Homo sapiens, HT-29, 72 h), 0.194 µM.
Consider `COc1cc2nc(n1)N1CCC(F)(F)C(C=CCc3cccc(c3)-c3cc(NS(=O)(=O)CCO)ccc3C(=O)N2)C1` (stereo not drawn) [Example 54, N-(1^4,1^4-difluoro-2^6-methoxy-4-oxo-3-aza-2(2,4)-pyrimidin-1(1,3)-piperidin-5(1,2),6(1,3)-diphenylheterocyclonon-8-en-5^4-yl)-2-hydroxyethane-1-sulfonamide], for which the IC50 was 0.867 µM with OVCAR3 cells (Homo sapiens, OVCAR-3, 72 h); more than 3 µM in the assay on HT29 cells (Homo sapiens, HT-29, 72 h); 1560 nM in assay [1] (KIF18A IC50 nM).
For the compound `COc1cc2nc(n1)N1CCC(F)(F)C(CCCc3ccc(cc3)-c3cc(NS(=O)(=O)CCO)ccc3C(=O)N2)C1` (single isomer, unassigned) [Example 51B, N-(1^4,1^4-difluoro-2^6-methoxy-4-oxo-3-aza-2(2,4)-pyrimidin-1(1,3)-piperidin-5(1,2),6(1,4)-dibenzylcyclononane-5^4-yl)-2-hydroxyethane-1-sulfonamide], the IC50 in the assay on OVCAR3 cells came out at 0.072 µM; in the assay on HT29 cells (read-out: HT-29 IC50), 0.074 µM; in assay [1] (read-out: KIF18A IC50) it was 144 nM.
`Cc1cc2nc(n1)N1CCC(F)(F)C(C=CCC3=CC=C(S3)c3cc(NS(=O)(=O)CCO)ccc3C(=O)N2)C1` (single isomer, unassigned) [Example 57A, N-(1^4,1^4-difluoro-2^6-methyl-4-oxo-3-aza-2(2,4)-pyrimidin-1(1,3)-piperidin-6(2,5)-thiophene-5(1,2)-benzoazacyclon-8-en-5^4-yl)-2-hydroxyethane-1-sulfonamide]: the IC50 with OVCAR3 cells (Homo sapiens, OVCAR-3, 72 h) came to 0.114 µM; in the assay with HT29 cells (Homo sapiens, HT-29, 72 h), 0.039 µM; in assay [1] (read-out: KIF18A IC50), 60 nM.
Consider `Cc1cc2nc(n1)N1CCC(F)(F)C(CCCc3ccc(cc3)-c3cc(NS(=O)(=O)CCO)ccc3C(=O)N2)C1` (single isomer, unassigned) [Example 46B, N-(1^4,1^4-difluoro-2^6-methyl-4-oxo-3-aza-2(2,4)-pyrimidin-1(1,3)-piperidin-5(1,2),6(1,4)-diphenylheterocyclononane-5^4-yl)-2-hydroxyethane-1-sulfonamide], for which the IC50 was 0.036 µM in the assay on HT29 cells (read-out: HT-29 IC50) and 57 nM in assay [1] (read-out: KIF18A IC50).
Consider `Cc1cc2nc(n1)N1CCC(F)(F)C(CC=Cc3ccc(nc3)-c3cc(NS(=O)(=O)CCO)ccc3C(=O)N2)C1` (stereo not drawn) [Example 48, N-(1^4,1^4-difluoro-2^6-methyl-4-oxo-3-aza-2(2,4)-pyrimidin-6(2,5)-pyridin-1(1,3)-piperidin-5(1,2)-phenylheterocyclonon-7-en-5^4-yl)-2-hydroxyethane-1-sulfonamide], for which the IC50 with OVCAR3 cells (Homo sapiens, OVCAR-3, 72 h) was 1.21 µM; with HT29 cells (Homo sapiens, HT-29, 72 h) it was 1.56 µM.
